Results: ChEMBL document CHEMBL4152198, “The development of Bruton's tyrosine kinase (BTK) inhibitors from 2012 to 2017: A mini-review” (Eur J Med Chem, 2018)
Each block holds one molecule with its values, some of them ahead of it.

Tests used:
[1] = molecular target: T1, Tyrosine-protein kinase BTK (Homo sapiens, UniProt Q06187); test: Binding affinity to BTK in human Ramos cells assessed as protein occupancy at 20 hrs post compound wash out; format: cell-based
[2] = molecular target: T1, Tyrosine-protein kinase BTK; test: Inhibition of BTK (unknown origin)
[3] = molecular target: T2, Tyrosine-protein kinase JAK3 (Homo sapiens, UniProt P52333); test: Inhibition of JAK3 (unknown origin)
T2 sequence (P52333 whole entry): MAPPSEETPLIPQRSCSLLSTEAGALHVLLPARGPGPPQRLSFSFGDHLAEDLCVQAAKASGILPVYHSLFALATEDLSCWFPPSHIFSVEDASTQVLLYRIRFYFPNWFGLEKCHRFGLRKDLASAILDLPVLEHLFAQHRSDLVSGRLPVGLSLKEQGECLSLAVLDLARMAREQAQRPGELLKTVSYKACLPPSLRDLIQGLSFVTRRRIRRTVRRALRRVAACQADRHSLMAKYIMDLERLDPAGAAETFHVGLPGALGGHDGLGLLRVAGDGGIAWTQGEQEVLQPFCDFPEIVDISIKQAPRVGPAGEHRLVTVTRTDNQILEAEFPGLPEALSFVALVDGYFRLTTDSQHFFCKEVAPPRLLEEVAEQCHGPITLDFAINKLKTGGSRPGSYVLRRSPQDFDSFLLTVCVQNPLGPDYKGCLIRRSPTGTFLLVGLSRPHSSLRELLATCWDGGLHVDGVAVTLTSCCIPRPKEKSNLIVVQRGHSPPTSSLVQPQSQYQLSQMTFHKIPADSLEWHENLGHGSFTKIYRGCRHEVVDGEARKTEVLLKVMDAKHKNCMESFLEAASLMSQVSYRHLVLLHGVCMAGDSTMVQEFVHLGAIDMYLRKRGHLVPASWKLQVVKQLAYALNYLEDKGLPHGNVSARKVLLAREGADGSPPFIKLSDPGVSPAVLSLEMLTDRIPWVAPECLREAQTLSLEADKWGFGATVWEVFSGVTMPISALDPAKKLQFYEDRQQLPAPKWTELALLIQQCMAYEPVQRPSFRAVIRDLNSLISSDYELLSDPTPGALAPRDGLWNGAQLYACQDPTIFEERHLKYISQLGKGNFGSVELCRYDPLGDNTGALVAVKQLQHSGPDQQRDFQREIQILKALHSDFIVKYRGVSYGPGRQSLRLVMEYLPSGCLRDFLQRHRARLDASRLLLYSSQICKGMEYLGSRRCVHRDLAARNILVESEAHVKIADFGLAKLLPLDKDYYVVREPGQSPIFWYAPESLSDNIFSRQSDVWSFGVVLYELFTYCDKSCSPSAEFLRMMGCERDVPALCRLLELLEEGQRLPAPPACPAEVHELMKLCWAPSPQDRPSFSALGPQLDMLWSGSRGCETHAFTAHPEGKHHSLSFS

[4] = molecular target: Ribosomal protein S6 kinase alpha-3 (Homo sapiens, UniProt P51812); test: Binding affinity to RPS6KA3 (unknown origin)
Homo sapiens [5] = species: Homo sapiens; test: Selectivity for BTK (unknown origin) over JAK3 (unknown origin)
Homo sapiens [6] = species: Homo sapiens; test: Selectivity for BTK (unknown origin) over EGFR (unknown origin)
Homo sapiens [7] = species: Homo sapiens; test: Selectivity for BTK (unknown origin) over ITK (unknown origin)
[8] = molecular target: T1, Tyrosine-protein kinase BTK; test: Binding affinity to BTK (unknown origin) assessed as residence time
[9] = molecular target: Receptor tyrosine-protein kinase erbB-4 (Homo sapiens, UniProt Q15303); test: Inhibition of ErbB4/HER4 (unknown origin)
[10] = molecular target: T3, Tyrosine-protein kinase Tec (Homo sapiens, UniProt P42680); test: Inhibition of TEC (unknown origin)
T3 sequence (P42680 whole entry): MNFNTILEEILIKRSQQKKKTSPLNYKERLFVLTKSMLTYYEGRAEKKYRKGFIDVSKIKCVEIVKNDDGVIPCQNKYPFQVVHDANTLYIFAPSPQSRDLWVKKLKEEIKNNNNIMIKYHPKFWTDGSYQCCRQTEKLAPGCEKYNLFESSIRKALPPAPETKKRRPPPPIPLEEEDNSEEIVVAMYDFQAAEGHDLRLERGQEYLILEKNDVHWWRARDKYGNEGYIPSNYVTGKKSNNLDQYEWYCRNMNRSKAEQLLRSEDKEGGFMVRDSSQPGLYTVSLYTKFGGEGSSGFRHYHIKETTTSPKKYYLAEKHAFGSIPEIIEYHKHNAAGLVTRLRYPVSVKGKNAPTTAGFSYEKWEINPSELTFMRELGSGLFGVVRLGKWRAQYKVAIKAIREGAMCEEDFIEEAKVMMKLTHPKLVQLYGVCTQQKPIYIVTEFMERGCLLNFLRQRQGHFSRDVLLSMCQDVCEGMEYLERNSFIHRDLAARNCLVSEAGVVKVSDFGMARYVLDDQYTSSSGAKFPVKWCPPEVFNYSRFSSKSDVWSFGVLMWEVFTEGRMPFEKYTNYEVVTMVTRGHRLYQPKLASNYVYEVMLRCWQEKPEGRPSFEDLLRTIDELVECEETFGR

[11] = molecular target: Tyrosine-protein kinase Lyn (Homo sapiens, UniProt P07948); test: Inhibition of LYN (unknown origin)
Chain of Tyrosine-protein kinase Lyn (P07948 whole entry): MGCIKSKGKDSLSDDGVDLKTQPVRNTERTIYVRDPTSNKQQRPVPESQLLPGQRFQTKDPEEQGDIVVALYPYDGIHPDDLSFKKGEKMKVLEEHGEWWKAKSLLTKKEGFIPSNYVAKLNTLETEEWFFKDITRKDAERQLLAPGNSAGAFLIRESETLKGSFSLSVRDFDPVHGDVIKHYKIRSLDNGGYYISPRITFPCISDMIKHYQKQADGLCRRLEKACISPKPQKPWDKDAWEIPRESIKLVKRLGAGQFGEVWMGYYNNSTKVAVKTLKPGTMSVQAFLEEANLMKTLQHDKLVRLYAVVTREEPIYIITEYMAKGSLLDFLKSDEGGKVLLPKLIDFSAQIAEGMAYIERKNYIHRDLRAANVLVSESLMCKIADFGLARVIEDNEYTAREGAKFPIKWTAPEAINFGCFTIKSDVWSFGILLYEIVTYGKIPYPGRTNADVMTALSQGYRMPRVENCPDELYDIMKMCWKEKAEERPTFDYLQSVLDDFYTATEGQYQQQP

T1 sequence (Q06187 whole entry): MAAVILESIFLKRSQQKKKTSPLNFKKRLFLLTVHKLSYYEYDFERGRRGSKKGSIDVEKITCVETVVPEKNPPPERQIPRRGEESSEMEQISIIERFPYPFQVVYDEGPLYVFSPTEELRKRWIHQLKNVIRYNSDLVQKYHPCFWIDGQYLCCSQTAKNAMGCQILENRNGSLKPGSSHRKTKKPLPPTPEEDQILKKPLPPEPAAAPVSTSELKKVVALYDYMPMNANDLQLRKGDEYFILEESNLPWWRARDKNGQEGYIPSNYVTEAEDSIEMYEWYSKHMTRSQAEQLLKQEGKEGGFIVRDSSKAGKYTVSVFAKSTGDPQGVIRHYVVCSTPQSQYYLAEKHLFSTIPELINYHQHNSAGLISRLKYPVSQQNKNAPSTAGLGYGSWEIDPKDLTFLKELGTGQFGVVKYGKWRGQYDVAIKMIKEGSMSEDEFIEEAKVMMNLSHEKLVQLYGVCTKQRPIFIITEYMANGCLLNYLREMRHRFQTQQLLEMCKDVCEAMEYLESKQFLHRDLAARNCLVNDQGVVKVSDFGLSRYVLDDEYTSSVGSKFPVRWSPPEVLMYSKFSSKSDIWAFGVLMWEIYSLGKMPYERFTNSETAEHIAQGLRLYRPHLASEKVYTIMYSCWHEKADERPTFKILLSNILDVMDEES
Chain of Receptor tyrosine-protein kinase erbB-4 (Q15303 whole entry): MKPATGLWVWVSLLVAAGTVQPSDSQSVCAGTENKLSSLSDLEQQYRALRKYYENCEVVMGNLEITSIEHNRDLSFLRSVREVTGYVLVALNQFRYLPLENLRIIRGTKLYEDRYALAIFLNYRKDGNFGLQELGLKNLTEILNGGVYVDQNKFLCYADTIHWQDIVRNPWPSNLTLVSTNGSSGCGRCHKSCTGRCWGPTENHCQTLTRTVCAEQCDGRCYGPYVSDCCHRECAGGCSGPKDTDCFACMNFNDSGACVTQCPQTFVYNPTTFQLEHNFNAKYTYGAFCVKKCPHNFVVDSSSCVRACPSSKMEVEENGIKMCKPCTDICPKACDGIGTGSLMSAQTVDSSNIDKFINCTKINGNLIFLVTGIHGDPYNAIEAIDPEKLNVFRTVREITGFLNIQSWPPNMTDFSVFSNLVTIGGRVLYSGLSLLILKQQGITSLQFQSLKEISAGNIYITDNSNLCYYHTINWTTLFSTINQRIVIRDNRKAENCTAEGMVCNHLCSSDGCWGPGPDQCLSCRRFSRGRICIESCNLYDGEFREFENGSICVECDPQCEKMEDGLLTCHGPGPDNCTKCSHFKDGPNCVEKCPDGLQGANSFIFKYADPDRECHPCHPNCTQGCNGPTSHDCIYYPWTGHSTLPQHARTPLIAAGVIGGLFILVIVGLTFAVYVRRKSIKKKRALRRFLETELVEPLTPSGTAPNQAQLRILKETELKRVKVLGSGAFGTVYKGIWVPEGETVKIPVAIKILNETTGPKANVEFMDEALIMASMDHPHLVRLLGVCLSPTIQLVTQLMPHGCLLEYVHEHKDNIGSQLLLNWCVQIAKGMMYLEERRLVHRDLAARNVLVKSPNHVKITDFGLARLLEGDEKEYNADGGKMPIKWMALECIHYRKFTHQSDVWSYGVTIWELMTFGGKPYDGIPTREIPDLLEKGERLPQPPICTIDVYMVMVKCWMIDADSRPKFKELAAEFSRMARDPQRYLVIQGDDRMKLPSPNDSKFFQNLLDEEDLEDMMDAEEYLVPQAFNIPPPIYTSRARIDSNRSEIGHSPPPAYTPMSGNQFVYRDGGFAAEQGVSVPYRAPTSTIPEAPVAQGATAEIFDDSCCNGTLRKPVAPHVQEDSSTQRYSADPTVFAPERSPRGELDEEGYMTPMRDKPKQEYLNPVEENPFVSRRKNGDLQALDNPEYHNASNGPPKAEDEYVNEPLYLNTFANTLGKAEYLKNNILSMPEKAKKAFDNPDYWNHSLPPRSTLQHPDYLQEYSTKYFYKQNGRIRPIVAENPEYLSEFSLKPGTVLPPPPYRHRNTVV
Chain of Ribosomal protein S6 kinase alpha-3 (P51812 whole entry): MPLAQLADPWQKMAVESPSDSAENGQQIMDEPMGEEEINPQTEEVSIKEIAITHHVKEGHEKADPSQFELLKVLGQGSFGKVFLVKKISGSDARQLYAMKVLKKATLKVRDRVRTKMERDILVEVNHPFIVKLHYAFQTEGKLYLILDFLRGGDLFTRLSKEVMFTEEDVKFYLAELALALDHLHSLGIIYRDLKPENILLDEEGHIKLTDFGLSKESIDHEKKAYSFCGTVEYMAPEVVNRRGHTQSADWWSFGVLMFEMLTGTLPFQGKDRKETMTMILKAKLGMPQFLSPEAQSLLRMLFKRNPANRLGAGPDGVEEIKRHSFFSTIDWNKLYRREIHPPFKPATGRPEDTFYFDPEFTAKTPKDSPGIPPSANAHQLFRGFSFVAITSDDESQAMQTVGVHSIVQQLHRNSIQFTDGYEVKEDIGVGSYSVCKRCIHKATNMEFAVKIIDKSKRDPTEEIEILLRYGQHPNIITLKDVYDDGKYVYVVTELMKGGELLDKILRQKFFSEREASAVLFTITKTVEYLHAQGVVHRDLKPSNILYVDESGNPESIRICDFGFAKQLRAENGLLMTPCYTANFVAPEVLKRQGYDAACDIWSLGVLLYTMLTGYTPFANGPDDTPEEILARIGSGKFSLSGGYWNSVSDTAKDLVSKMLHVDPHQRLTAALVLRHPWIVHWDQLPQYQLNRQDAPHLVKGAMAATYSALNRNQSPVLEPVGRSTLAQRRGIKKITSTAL

- Occ [1]: 55%
- IC50 [2]: 4 nM
- IC50 [3]: > 5000 nM
Structure (SMILES): CC(C)(C)/C=C(/C#N)C(=O)N1CCC[C@@H](n2nc(-c3ccc(Oc4ccccc4)cc3)c3c(N)ncnc32)C1

- IC50 [2]: 2 nM
Structure (SMILES): Cc1cc2[nH]ncc2cc1-c1cccc2c(N)c(C(N)=O)nnc12

- Kd [4]: 0.54 nM
- Selectivity ratio (Homo sapiens [5]): > 1000
- Selectivity ratio (Homo sapiens [6]): > 1000
- Selectivity ratio (Homo sapiens [7]): 60
- TIME [8]: 161 h
Structure (SMILES): CN(C1COC1)C(C)(C)/C=C(\C#N)C(=O)N1CCC[C@H]1Cn1nc(-c2ccc(Oc3ccccc3)cc2F)c2c(N)ncnc21

- IC50 [9]: 11.3 nM
Structure (SMILES): CC(C)(/C=C(\C#N)C(=O)N1CCC[C@H](n2nc(-c3ccc(Oc4ccccc4)cc3F)c3c(N)ncnc32)C1)N1CCN(C2COC2)CC1

- IC50 [10]: 6.2 nM
- IC50 [11]: 4400 nM
Structure (SMILES): C=CC(=O)Nc1cccc(Nc2nc(Nc3ccc(OCCOC)cc3)ncc2F)c1 [SPEBRUTINIB]

- IC50 [2]: 652 nM
Structure (SMILES): C=CC(=O)Nc1cccc(Oc2nc(Nc3ccc(N4CCN(C)CC4)cc3)nc3ccoc23)c1 [POSELTINIB]
